Legend:
PGR-2 [1] = target: T1, PGR-2 (Mus musculus, UniProt Q8VDQ1); test: PGR-2 enzymatic activity: substrate specificity and kinetics; format: biochemical; conditions: for specific activity with PGR-2 (substrate specificity): 15-keto PGE2 replaced with the substrate, 0.5 mM NADPH, 2 hours at 37° C.; for reduction catalyzed by PGR-2 (kinetics studies): recombinant PGR-2, NADPH cofactor
T1 construct: GST (N); made in house; host or cells: E. coli
Experimental: Mouse PGR-2 was recombinantly expressed in E. coli as a GST fusion protein following standard procedures. The recombinant PGR-2 protein thus obtained was used to determine substrate specificity and enzymatic kinetics.
Substrate specificity of PGR-2 was determined using the just-described procedure, except that 15-keto PGE2 was replaced with each of six prostaglandin substrates, each of three downstream metabolites, or leukotriene B4. The substrates were purchased from Cayman Chemical Company (Michigan, USA).
Unlike PGR/LTB4DH, PGR-2 used NADPH as a cofactor much more efficiently than NADH.
The substrate was 15-keto prostaglandin E1, 15-keto prostaglandin E2, 15-keto prostaglandin F1α, 15-keto prostaglandin F2α, 15-keto-fluprostenol isopropyl ester, or 15-keto-fluprostenol, which were purchased from Cayman Chemical Company (Michigan, USA). […] Absorbance at 490 nm was measured by an ELISA plate reader.

PPARs = test: Reporter gene assay of endogenous PPARs activity in 3T3-L1 cells; format: cell-based, mouse; conditions: 3T3-L1 cells induced to differentiate for two days, transfected with reporter gene
Experimental: (§1) The effect of prostaglandin on PPAR-γ activity in adipocytes was investigated. After treatment with a medium that induces cell differentiation, 3T3-L1 cells were treated from day 2 to 4 during adipogenesis with 14 μM 15-keto PGE2, 13,14-dihydro-15-keto PGE2, 15-keto PGF2α, 13,14-dihydro-15-keto PGF2α, or 4.5 μM of BRL49653 (a PPAR-γ agonist). See Forman et al., Cell (1995) 83:803-812. At day 6, aggregates of lipid droplets were stained with oil-red O for observation. […] After being induced to differentiate for two days, the 3T3-L1 cells were transfected with a reporter gene.

3T3-L1 cells [2] = test: Adipogenesis in 3T3-L1 cells, oil-red O staining of lipid droplets; format: cell-based, mouse; conditions: 14 μM, day 2 to 4 during adipogenesis; stained at day 6
Experimental: as §1

PPAR-γ target genes = test: Protein expression of adipogenesis-specific PPAR-γ target genes in 3T3-L1 cells; format: cell-based, mouse
Text: Also examined was the ability of 15-keto PGE2 to induce protein expression of adipogenesis-specific, PPAR-γ target genes, i.e., IRS-1and -2.

PPAR-γ [3] = target: T2, PPAR-γ (Homo sapiens, UniProt P37231); test: Luciferase reporter with PPAR ligand-binding domain fused to GAL4 DNA-binding domain in 3T3-L1 cells; format: cell-based
T2 construct: expressed in transfected cells; host or cells: 3T3-L1
T2 sequence (P37231 238-503 limits assumed): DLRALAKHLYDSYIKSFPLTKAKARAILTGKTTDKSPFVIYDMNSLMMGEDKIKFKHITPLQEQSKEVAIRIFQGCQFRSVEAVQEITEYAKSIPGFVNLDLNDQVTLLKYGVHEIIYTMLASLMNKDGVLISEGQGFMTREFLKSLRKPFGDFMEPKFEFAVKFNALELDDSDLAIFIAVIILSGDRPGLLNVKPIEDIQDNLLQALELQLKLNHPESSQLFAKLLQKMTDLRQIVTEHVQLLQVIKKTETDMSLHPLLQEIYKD
Text: (§2) A luciferase reporter gene was transfected to 3T3-L1 cells together with the ligand-binding domain of […], PPAR-γ or […] fused to a yeast GAL4 DNA-binding domain.

PPAR-α = target: T3, PPAR-α (Homo sapiens, UniProt Q07869); test: as above; format: cell-based; conditions: relative to PPAR-γ activation
T3 construct: expressed in transfected cells; host or cells: 3T3-L1
T3 sequence (Q07869 239-466 limits assumed): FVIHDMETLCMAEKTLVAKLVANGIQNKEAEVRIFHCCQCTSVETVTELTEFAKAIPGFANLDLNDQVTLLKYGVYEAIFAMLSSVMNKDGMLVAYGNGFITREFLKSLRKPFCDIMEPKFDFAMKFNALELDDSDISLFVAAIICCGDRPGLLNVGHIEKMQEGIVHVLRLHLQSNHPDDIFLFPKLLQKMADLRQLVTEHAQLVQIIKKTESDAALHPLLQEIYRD
Text: as §2

3T3-L1 cells [4] = test: Glucose transport assay, uptake of 2-deoxy-D-[3H]glucose in differentiated 3T3-L1 cells; format: cell-based, mouse
Experimental: 3T3-L1cells were induced to differentiate in the same manner as described above. A glucose transport assay was performed by measuring uptake of 2-deoxy-D-[3H]glucose as described by Fingar et al. See Fingar et al., Endocrinology 134:728-735. 1.67 μM of the compound or 45 nM of a PPARs agonist, i.e., Avandia, was added to the cells. 10 μM cytochalasin-B was used to measure background glucose uptake levels.

[5] = system: Female diabetic mice (C57BLKS/J-m+/+Lep^db); test: Blood glucose levels in diabetic mice; format: in vivo, mouse; conditions: 25 mg/kg intraperitoneally twice a day for two days; fasted 48th through 52nd hour
Experimental: The in vivo effect compound 45 on glucose metabolism was also investigated. Female diabetic mice were obtained from the Jackson Laboratory (C57BLKS/J-m+/+Lep^db, 12 to 13 weeks old). These mice were characterized as insulin-resistant and hyperglycemic. 25 mg/kg of 2,2′-dihydroxychalcone (n=8) or placebo (n=4, final concentration against body fluid: 0.5% DMSO/1% ethanol) was injected intraperitoneally to the mice twice a day for two days. The mice were then fasted from the 48th hour through 52nd hour after the first injection. Blood samples were collected from the retro-orbital sinus before the first injection, and every two hours after two days of treatment. Blood glucose levels were measured by an electrode-type blood glucose meter (HORIBA, AntSense II, Japan).

PGR-2 [6] = test: RNA interference silencing of PGR-2 expression in 3T3-L1 cells; format: cell-based, mouse; conditions: transfection into 3T3-L1 fibroblasts or differentiating pre-adipocytes
Text: (§3) An RNA interference (RNAi) approach was used to silence PGR-2 expression. Two small interfering RNA (siRNA) duplexes, i.e., […] (SEQ ID NO:7) and […] (SEQ ID NO:8), were annealed first and then introduced into 3T3-L1 fibroblasts or differentiating pre-adipocytes by transfection using oligofectamine (Invitrogen). Transfection of the siRNA duplexes reduced PGR-2 expression. In another experiment, transfection of the siRNA duplexes increased transcriptional activation of PPAR-γ. Thus, one can modulate PPAR-γ activity via silencing PGR-2 expression by RNA interference.

PPAR-γ [7] = test: Transcriptional activation of PPAR-γ after siRNA transfection; format: cell-based; conditions: transfection of siRNA duplexes
Text: as §3

T1 sequence (Q8VDQ1 whole entry): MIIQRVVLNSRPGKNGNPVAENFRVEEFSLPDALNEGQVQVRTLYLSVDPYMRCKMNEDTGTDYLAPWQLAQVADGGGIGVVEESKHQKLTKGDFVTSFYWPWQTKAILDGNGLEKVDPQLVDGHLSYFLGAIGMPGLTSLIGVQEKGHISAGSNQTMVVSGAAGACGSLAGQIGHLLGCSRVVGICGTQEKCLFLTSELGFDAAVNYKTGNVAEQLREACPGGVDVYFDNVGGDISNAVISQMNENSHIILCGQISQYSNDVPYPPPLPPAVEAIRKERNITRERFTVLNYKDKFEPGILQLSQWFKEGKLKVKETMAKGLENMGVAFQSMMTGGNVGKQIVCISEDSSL

CCCCC[C@H](O)/C=C/[C@@H]1[C@@H](CC(=O)CCCCC(=O)O)[C@@H](O)C[C@H]1O [6-keto PGF1α]
specific activity with PGR-2 (substrate specificity) (PGR-2 [1]): no specific activity was detected

CCCCCC(=O)CC[C@H]1[C@H](O)CC(=O)[C@@H]1C/C=C\CCCC(=O)O [13,14-dihydro-15-keto PGE2]
endogenous PPARs activity (reporter gene) (PPARs): failed to increase PPARs activity | specific activity with PGR-2 (substrate specificity) (PGR-2 [1]): no specific activity was detected

CCCCCC(=O)CC[C@@H]1[C@@H](C/C=C\CCCC(=O)O)[C@@H](O)C[C@H]1O [13,14-dihydro-15-keto PGF2α]
endogenous PPARs activity (reporter gene) (PPARs): failed to increase PPARs activity

CCCCCC(=O)/C=C/[C@H]1[C@H](O)CC(=O)[C@@H]1CCCCCCC(=O)O [15-keto PGE1, 15-keto prostaglandin E1]
specific activity with PGR-2 (substrate specificity) (PGR-2 [1]): reacted specifically | reduction catalyzed by PGR-2 (kinetics studies) (PGR-2 [1]): catalyzed reduction

CCCCCC(=O)/C=C/[C@H]1[C@H](O)CC(=O)[C@@H]1C/C=C\CCCC(=O)O [15-keto PGE2, 15-keto prostaglandin E2]
endogenous PPARs activity (reporter gene) (PPARs): enhanced endogenous PPARs activity significantly | adipogenesis (lipid droplets stained with oil-red O) (3T3-L1 cells [2]): effectively enhanced adipogenesis at a level similar to BRL49653 | reduction catalyzed by PGR-2 (kinetics studies) (PGR-2 [1]): catalyzed reduction | amount of IRS-1 protein (PPAR-γ target genes): did not increase | PPAR-γ1 and PPAR-γ2 expression (PPAR-γ target genes; added with MIX, insulin and dexamethasone): significantly enhanced | expression of aP2, an adipocyte-specific marker (PPAR-γ target genes; even in the absence of MIX): strongly induced | IRS-2 expression (PPAR-γ target genes; in the presence of insulin and dexamethasone): enhanced the expression to a level similar to MIX | activation of PPAR-γ (GAL4 fusion, luciferase reporter) (PPAR-γ [3]): activated | activation of PPAR-α (GAL4 fusion, luciferase reporter) (PPAR-α): to a lesser degree

CCCCCC(=O)/C=C/[C@@H]1[C@@H](CCCCCCC(=O)O)[C@@H](O)C[C@H]1O [15-keto PGF1α, 15-keto prostaglandin F1α]
specific activity with PGR-2 (substrate specificity) (PGR-2 [1]): reacted specifically | reduction catalyzed by PGR-2 (kinetics studies) (PGR-2 [1]): catalyzed reduction

CCCCCC(=O)/C=C/[C@@H]1[C@@H](C/C=C\CCCC(=O)O)[C@@H](O)C[C@H]1O [15-keto PGF2α, 15-keto prostaglandin F2α]
endogenous PPARs activity (reporter gene) (PPARs): enhanced endogenous PPARs activity significantly | specific activity with PGR-2 (substrate specificity) (PGR-2 [1]): reacted specifically | reduction catalyzed by PGR-2 (kinetics studies) (PGR-2 [1]): catalyzed reduction | activation of PPAR-γ (GAL4 fusion, luciferase reporter) (PPAR-γ [3]): activated | activation of PPAR-α (GAL4 fusion, luciferase reporter) (PPAR-α): to a lesser degree

CC(C)OC(=O)CCC/C=C\C[C@@H]1[C@@H](/C=C/C(=O)COc2cccc(C(F)(F)F)c2)[C@H](O)C[C@@H]1O [15-keto fluprostenol isopropyl ester]
reduction catalyzed by PGR-2 (kinetics studies) (PGR-2 [1]): catalyzed reduction

O=C(O)CCC/C=C\C[C@@H]1[C@@H](/C=C/C(=O)COc2cccc(C(F)(F)F)c2)[C@H](O)C[C@@H]1O [15-keto fluprostenol]
reduction catalyzed by PGR-2 (kinetics studies) (PGR-2 [1]): catalyzed reduction

O=C(c1cc2cc(Cl)ccc2oc1=O)c1cc2cc(Cl)ccc2oc1=O [Compound 27]
ability to enhance glucose uptake compared with Avandia (3T3-L1 cells [4]; 1.67 μM compound vs 45 nM Avandia): comparable to that of Avandia | increase of glucose uptake (3T3-L1 cells [4]; differentiated 3T3-L1 cells, 1.67 μM compound, 100 nM insulin to stimulate uptake): 30 folds

O=C(/C=C/c1ccccc1O)c1ccccc1O [Compound 45, 2,2′-dihydroxychalcone]
blood glucose levels compared to placebo controls [5]: significant reduction

CCCCC/C=C\C[C@@H](O)/C=C/C=C/C=C\[C@@H](O)CCCC(=O)O [leukotriene B4]
specific activity with PGR-2 (substrate specificity) (PGR-2 [1]): no specific activity was detected

SEQ ID NO:7: small interfering RNA (siRNA) duplex gaguucaguuuaccggaug to silence PGR-2 expression (GAGUUCAGUUUACCGGAUG; chemistry not given here)
PGR-2 expression (PGR-2 [6]): reduced | transcriptional activation of PPAR-γ (PPAR-γ [7]): increased

SEQ ID NO:8: small interfering RNA (siRNA) duplex guucaagugaggacucuuu to silence PGR-2 expression (GUUCAAGUGAGGACUCUUU; chemistry not given here)
PGR-2 expression (PGR-2 [6]): reduced | transcriptional activation of PPAR-γ (PPAR-γ [7]): increased
